Among the data in ChEMBL document CHEMBL1157539, “Thousands of chemical starting points for antimalarial lead identification” (Nature, 2010) are XC50 values, retold here.

This assay concerns Plasmodium falciparum. The experiment in a line: GSK_TCMDC: Inhibition of Plasmodium falciparum 3D7 in whole erythrocytes, using parasite LDH activity as an index of growth. Format: functional, organism-based.

For the setting “Plasmodium falciparum, 3D7”, `Cc1nc(-c2cccc(Nc3nccc(NCC(O)c4cccc(F)c4)n3)c2)cs1` (stereo not drawn) yielded an XC50 of 699 nM.
Take `COc1ccc(NC(=O)Nc2ccc(-c3ccc(-c4nc5cccc(C)c5[nH]4)s3)cc2)cc1`: the XC50 (Plasmodium falciparum, 3D7) was 175 nM.
Molecule `CC(=O)Nc1nc(C(=O)Nc2ccc(-c3cccc(-c4nc5cc(C(F)(F)F)ccc5[nH]4)c3)cc2)cs1` came in with an XC50 (Plasmodium falciparum, 3D7) of 184 nM.
On the same count and under the same terms, the value for `CC(C)c1ccc(C(NC(=O)C2CCCCC2)c2ccc3cccnc3c2O)cc1` (stereo not drawn) was 603 nM.
The molecule `CN(c1ccc(C(=O)N[C@@H](CCC(=O)O)C(=O)O)cc1)S(=O)(=O)c1ccc2nc(N)[nH]c(=O)c2c1` yielded an XC50 (Plasmodium falciparum, 3D7) of 149 nM.
Same read-out and setting: with `CCN1C(c2ccc(Cl)cc2)C(CNCc2ccccc2O)CC1(C)CO` (stereo not drawn) the figure was 311 nM; with `CCc1ccc(NC(=O)c2ccc(CN3CCCN(Cc4cccc(O)c4)CC3)cc2)cc1`, 673 nM.
Still for that read-out and setting: with `OCCN1CCN(Cc2ccc(-c3ccc(-c4nc5cc(F)ccc5[nH]4)cc3)cc2)CC1` the figure was 567 nM.
Same read-out and setting: with `CC(C)c1ccc(NC(=O)c2cccc(CN3CCCN(Cc4cccc(C#N)c4)CC3)c2)cc1` the figure was 948 nM.
For the setting “Plasmodium falciparum, 3D7”, `O=C(NC1CCC(N2CCN(c3cccc4[nH]ccc34)CC2)CC1)c1cc2cccnc2[nH]1` (stereo not drawn) came in with an XC50 of 492 nM.
Same read-out and setting: the value for `O=[N+]([O-])c1cccc(CNC2CCN(Cc3ccc(Cl)c(Cl)c3)CC2)c1` was 456 nM; that for `Cc1cc(NC(=O)c2ccc(-c3ccccc3)cc2)no1` was 1020 nM; that for `O=C(Nc1ccc(OC2CCN(Cc3ccc(F)cc3)CC2)c(Cl)c1)c1ccccc1` was 794 nM.
Still for that read-out and setting: with `O=C(NC1CCCc2ccccc21)[C@@H]1CCCN1C(=O)c1ccc(O)c(-c2ccc(Cl)c(Cl)c2)c1` (stereo partly drawn) the figure was 209 nM.
`Cc1nc(NCCCn2ccnc2)cc(-c2cncc(-c3ccc(OC(F)(F)F)cc3)c2)n1` displayed an XC50 (Plasmodium falciparum, 3D7) of 616 nM.
The same measure, in the same setting: with `Cc1cccc2nc(-c3ccc(-c4ccc(CN5CCN(c6ccncc6)CC5)cc4)cc3)[nH]c12` the figure was 163 nM.
In turn, `Cc1c(C)c2c(c(C)c1O)CC[C@](C)(C(=O)NC1CCC(CN3CCC(c4c[nH]c5ccccc45)CC3)CC1)O2` (stereo partly drawn) gave an XC50 of 1120 nM. For the setting “Plasmodium falciparum, 3D7”, the XC50 was 881 nM.
`CCOc1ccc(C(C)NC(=O)C2COc3ccccc3O2)cc1OCC` (stereo not drawn) had an XC50 (Plasmodium falciparum, 3D7) of 899 nM.
Take `c1ccc(CCNCc2ccc(-c3cccc(CNc4ccc5ncccc5c4)c3)cc2)cc1`: the XC50 (Plasmodium falciparum, 3D7) was found to be 926 nM.
The same measure, in the same setting: with `Cc1cc(NCCc2ccccc2)nc(NC(=N)Nc2cccc([N+](=O)[O-])c2)n1` the figure was 140 nM; with `CN(Cc1ccccc1)C(=O)CCNS(=O)(=O)c1cc(Br)cnc1N`, 1130 nM.
`COc1cc(C(=O)NC2CCN(Cc3ccccc3)CC2)ccc1-c1nc2c(Cl)cc(C(F)(F)F)cc2[nH]1` showed an XC50 (Plasmodium falciparum, 3D7) of 670 nM.
On the same count and under the same terms, the value for `O=C(COc1ccc(Cl)c(Cl)c1)NCCCCCN1CCCN(C(=O)Nc2ccc(Cl)c(Cl)c2)CC1` was 1730 nM.
The same measure, in the same setting: the value for `FC(F)(F)c1ccc2[nH]c(-c3ccc(-c4cccc(CN5CCCCC5)c4)cc3)nc2c1` was 144 nM; that for `O=C(NCCc1ccccc1)N(Cc1cccc(-c2ccc(CNC3CCCC3)cc2)c1)C1CCN(Cc2ccccc2)CC1` was 404 nM; that for `COc1ccc2[nH]ccc(=NN=Cc3cccc(F)c3)c2c1` was 750 nM.
On the same count and under the same terms, with `CCc1nc2nc(C)cc(Nc3ccc(F)c(Cl)c3)n2n1` the figure was 974 nM; with `c1ccc2c(c1)CN(Cc1cc3ccccc3[nH]1)CC1(CCN(Cc3c[nH]c4cnccc34)CC1)O2`, 306 nM; with `c1ccc(Oc2ccc(Nc3nncc4ccccc34)cc2)cc1`, 686 nM.
In the case of `CC[C@H]1CN2CC[C@@H]1C[C@H]2[C@H](O)c1cc(N2CCC(O)CC2)nc2ccc(OC)cc12`, the XC50 (Plasmodium falciparum, 3D7) worked out at 166 nM.
Molecule `CC[C@H](C)CNC(=O)c1cncc(-c2ccc(CNCCOc3ccccc3)cc2)c1` had an XC50 (Plasmodium falciparum, 3D7) of 1110 nM.
Turning to `Nc1ncc(-c2ccccc2)cc1-c1cccc2ncccc12`, the XC50 (Plasmodium falciparum, 3D7) worked out at 272 nM.
Same read-out and setting: the value for `Cc1cc(N[C@@H](Cc2ccccc2)C(=O)NCc2cccs2)nc(NCC2CCCCC2)n1` was 988 nM; that for `CCCCCc1ccc(NC(=O)Nc2ccc(Cn3ncc(N4CCCNCC4)c(Cl)c3=O)cc2)cc1` was 1140 nM.
For the setting “Plasmodium falciparum, 3D7”, `CCn1ncc(Cl)c1CN(C)S(=O)(=O)c1ccc(Br)cc1` gave an XC50 of 1020 nM.
Still for that read-out and setting: the value for `COc1cc(Cc2cnc3nc(N)nc(N)c3c2C)cc(OC)c1OC` was 64.2 nM; that for `Cc1cc(C2CCN(CCCCNC(=O)c3ccc(-c4ccc(C(F)(F)F)cc4)cc3)CC2)c(C)cc1OCCOC1CCCCO1` (stereo not drawn) was 785 nM; that for `Nc1nc(N)c2c(ccc3c2ccn3CCCF)n1` was 149 nM.
On the same count and under the same terms, with `Cc1cccc(CN2CCCN(Cc3ccc(C(=O)Nc4ccc(Cl)cc4)cc3)CC2)c1` the figure was 596 nM; with `Cc1c[nH]c(CCNC(=O)c2cc(-c3ccc(Cl)cc3)cs2)n1`, 242 nM; with `Cc1cc(N/N=C/c2ccccc2[N+](=O)[O-])c2ccc(F)cc2n1`, 350 nM.
Still for that read-out and setting: the value for `CC(C)CCNCc1ccc(OCc2cccc(C(=O)Nc3ccccc3)c2)c(I)c1` was 288 nM; that for `COc1cc(-c2nc3c4ccccc4c4ccccc4c3[nH]2)cc(OC)c1OC` was 848 nM.
`Cc1ccc(S(=O)(=O)NC2=NC(=N)N(OCc3ccc(Cl)c(Cl)c3)C(C)(C)N2)cc1` gave an XC50 (Plasmodium falciparum, 3D7) of 1140 nM.
The same measure, in the same setting: the value for `Cc1cc(N2CCC(NS(=O)(=O)c3ccc(F)cc3)CC2)nc(Nc2cccc(C#N)c2)n1` was 651 nM.
On the same count and under the same terms, the value for `O=C(NC1CCCCCC1)C1CCCN(C(=O)c2ccc(O)c(-c3ccc(Cl)c(Cl)c3)c2)C1` (stereo not drawn) was 763 nM.
Still for that read-out and setting: the value for `CCN(CC)CCN(Cc1ccc(-c2ccc(C(F)(F)F)cc2)cc1)C(=O)c1ccc(-c2ccc(C#N)cc2)cc1` was 1110 nM.
`O=C(Nc1cccc(CN2CCCN(Cc3ccc(O)cc3)CC2)c1)c1cccc(C(F)(F)F)c1` came in with an XC50 (Plasmodium falciparum, 3D7) of 314 nM.
On the same count and under the same terms, with `OCCc1ccc(Nc2nccc(-c3nnc4ccccn34)n2)cc1` the figure was 901 nM; with `CCN(CCC1(c2ccc(Cl)c(Cl)c2)CN(C(=O)c2cc(OC)c(OC)c(OC)c2)CCO1)C1CC2c3ccccc3CC21` (stereo not drawn), 426 nM; with `O=C1COc2cc(Cl)c(CNC3CCN(CCc4ccnc5c(F)cc(F)cc45)CC3)nc2N1`, 797 nM.
As to `CC(C)c1sc(N2CCN(C)CC2)nc1C(=O)NCCc1cccc(Cl)c1`, the XC50 (Plasmodium falciparum, 3D7) is 1490 nM.
As for `CC(C)n1c(C(C)(C)C)cc2c3c(N)nc(N)nc3ccc21`, the XC50 (Plasmodium falciparum, 3D7) stood at 3.2 nM.
On the same count and under the same terms, the value for `C[C@H](NC(=O)c1c(OC2CN(C(c3ccccc3)c3ccccc3)C2)c(-c2ccccc2)nc2ccccc12)C1CCCCC1` was 978 nM.
Same read-out and setting: with `CCN(CCS(C)(=O)=O)Cc1ccc(-c2ccc3ncnc(Nc4ccc(OCc5cccc(F)c5)c(Cl)c4)c3c2)o1` the figure was 608 nM; with `CCN(CC)S(=O)(=O)c1ccc(C(=O)Oc2ccccc2N(Cc2ccc(OC)cc2)C2=NS(=O)(=O)c3ccccc32)cc1`, 585 nM; with `C=CCN1Cc2c(O)cccc2C(c2ccc(O)c(O)c2)C1` (stereo not drawn), 670 nM.
Still for that read-out and setting: the value for `Cc1ccccc1CNc1ccc2nc(N)nc(N)c2c1` was 171 nM; that for `COc1cc2c(cc1C(F)(F)F)N(C(=O)Nc1cc(F)cc(-c3cccnn3)c1)CC2` was 275 nM.
`N#Cc1ccccc1S(=O)(=O)N1CCCC(CNC(=O)[C@H](CC2CCCCC2)NC(=O)c2cc3ccccc3s2)C1` (stereo partly drawn) displayed an XC50 (Plasmodium falciparum, 3D7) of 515 nM.
Still for that read-out and setting: the value for `Cc1cc(=NN=Cc2ccccc2F)c2cccc(C)c2[nH]1` was 764 nM; that for `CC(C)C(=O)NC(c1cccs1)c1cc(Cl)c2cccnc2c1O` (stereo not drawn) was 575 nM.
Still for that read-out and setting: the value for `CC(=O)Nc1nc(C(=O)Nc2cccc(-c3ccc4c(cnn4CC4CC4)c3)c2)cs1` was 735 nM; that for `CN1CCC(c2c[nH]c3ccc(NC(=O)Nc4ccc(-c5ccncc5)c(Cl)c4Cl)cc23)CC1` was 696 nM.
On the same count and under the same terms, with `CCCCN(CCCC)C(=N)c1cccc2c1CCCC2` the figure was 1560 nM; with `CCN(CC)CCNC(=O)c1ccc(NC(=O)c2cc(-c3ccncc3)nc3ccccc23)cc1`, 770 nM; with `OC(CNc1ccnc(Nc2cccc(Cl)c2)n1)c1cccc(C(F)(F)F)c1` (stereo not drawn), 513 nM.
With `COc1ccc2nccc(N(C)CC3(O)CCN(CCc4ccc5c(c4)OCCO5)CC3)c2n1`, for the setting “Plasmodium falciparum, 3D7”, the XC50 worked out at 143 nM.
On the same count and under the same terms, with `Cc1cccc2[nH]cc(C3CCN(CC4CCC(NC(=O)/C=C/c5ccc(Cl)c(Cl)c5)CC4)CC3)c12` (stereo not drawn) the figure was 163 nM.
The same measure, in the same setting: the value for `C[C@@H](CC1CCCCC1)OC(=O)N(C)[C@H]1CCN(C#N)C1` was 219 nM; that for `c1cc(-c2cc3ccc(C4=NCCN4)cc3[nH]2)ccc1C1=NCCN1` was 224 nM; that for `CCOc1ccccc1N1CCN(CCCNC(=O)/C(=C/C=C/c2cc3cc(Cl)c(Cl)cc3[nH]2)OC)CC1` was 851 nM.
Under “Plasmodium falciparum, 3D7”, `O=C(NC1CCN(Cc2ccc3c(c2)OCCO3)CC1)c1ccc(-c2cccc(C(F)(F)F)c2)s1` gave an XC50 of 1830 nM.
Regarding `CC(C)c1ccc(NC(=O)NC2CCN(CCCCCN(C)C(=O)/C=C/c3ccc(Cl)c(Cl)c3)C2)cc1` (stereo not drawn), the XC50 (Plasmodium falciparum, 3D7) came out at 830 nM.
As for `Cc1ccc(Cc2c(C)nc3nc(N)nc(N)c3c2C)cc1`, the XC50 (Plasmodium falciparum, 3D7) came out at 243 nM.
Molecule `CC(C)CCN1CCCN(Cc2cccc(NC(=O)c3ccc(-c4ccccc4)cc3)c2)CC1` returned an XC50 (Plasmodium falciparum, 3D7) of 888 nM.
`O=C(NCC1CCC(CNCCCc2ccccc2)CC1)c1cc(Cl)cc(Cl)c1` (stereo not drawn) came in with an XC50 (Plasmodium falciparum, 3D7) of 846 nM.
For `COc1cc(Cc2cnc(N)nc2N)cc(CC(C)O)c1O` (stereo not drawn), under “Plasmodium falciparum, 3D7”, the XC50 came to 843 nM.
On the same count and under the same terms, with `Oc1cc2c(cc1CN1CCN(Cc3ccc(Cl)s3)CC1)CCC2` the figure was 616 nM; with `COc1ccc(O)c(CN2CCN(c3cc(C)ccc3C)CC2)c1`, 1010 nM; with `N#Cc1cccc(C(=O)Nc2ccc(-c3ccc(CN4CCCC4)cc3)cc2)c1`, 1150 nM.
`COc1ccc(Cn2c(Nc3cccc(C(F)(F)F)c3)nc3cc(C(=O)NC(C)C)cnc32)cc1Cl` displayed an XC50 (Plasmodium falciparum, 3D7) of 973 nM.
The molecule `CCCCCCN1CCC(NCc2cccc(C(F)(F)F)c2)CC1` registered an XC50 (Plasmodium falciparum, 3D7) of 246 nM.
Still for that read-out and setting: the value for `ON=C(c1nc2ccccc2[nH]1)c1nc2ccccc2[nH]1` was 1090 nM; that for `O=C(Nc1ccc(OC2CCN(Cc3ccc(F)cc3)C2)cc1)c1ccco1` (stereo not drawn) was 1040 nM; that for `O=C(Nc1ccc(Br)cc1)N1CCC(n2c(-c3ccccc3)nc3cccnc32)CC1` was 763 nM.
Still for that read-out and setting: the value for `COc1ccc2nccc([C@@H](O)CN3CCC(NC(=O)/C=C/c4ccc5cc(C)[nH]c5c4)CC3)c2c1` was 728 nM.
